Assay results from patent publication US10774092B2 (SALK INSTITUTE FOR BIOLOGICAL STUDIES, priority 2014, dated 2020).

target: ULK1 (Homo sapiens, UniProt O75385); experiment: ULK1 inhibition assay (Table 1); assay type: biochemical; details: * = tested as a mixture of regioisomers
Sequence (O75385 whole entry, looked up): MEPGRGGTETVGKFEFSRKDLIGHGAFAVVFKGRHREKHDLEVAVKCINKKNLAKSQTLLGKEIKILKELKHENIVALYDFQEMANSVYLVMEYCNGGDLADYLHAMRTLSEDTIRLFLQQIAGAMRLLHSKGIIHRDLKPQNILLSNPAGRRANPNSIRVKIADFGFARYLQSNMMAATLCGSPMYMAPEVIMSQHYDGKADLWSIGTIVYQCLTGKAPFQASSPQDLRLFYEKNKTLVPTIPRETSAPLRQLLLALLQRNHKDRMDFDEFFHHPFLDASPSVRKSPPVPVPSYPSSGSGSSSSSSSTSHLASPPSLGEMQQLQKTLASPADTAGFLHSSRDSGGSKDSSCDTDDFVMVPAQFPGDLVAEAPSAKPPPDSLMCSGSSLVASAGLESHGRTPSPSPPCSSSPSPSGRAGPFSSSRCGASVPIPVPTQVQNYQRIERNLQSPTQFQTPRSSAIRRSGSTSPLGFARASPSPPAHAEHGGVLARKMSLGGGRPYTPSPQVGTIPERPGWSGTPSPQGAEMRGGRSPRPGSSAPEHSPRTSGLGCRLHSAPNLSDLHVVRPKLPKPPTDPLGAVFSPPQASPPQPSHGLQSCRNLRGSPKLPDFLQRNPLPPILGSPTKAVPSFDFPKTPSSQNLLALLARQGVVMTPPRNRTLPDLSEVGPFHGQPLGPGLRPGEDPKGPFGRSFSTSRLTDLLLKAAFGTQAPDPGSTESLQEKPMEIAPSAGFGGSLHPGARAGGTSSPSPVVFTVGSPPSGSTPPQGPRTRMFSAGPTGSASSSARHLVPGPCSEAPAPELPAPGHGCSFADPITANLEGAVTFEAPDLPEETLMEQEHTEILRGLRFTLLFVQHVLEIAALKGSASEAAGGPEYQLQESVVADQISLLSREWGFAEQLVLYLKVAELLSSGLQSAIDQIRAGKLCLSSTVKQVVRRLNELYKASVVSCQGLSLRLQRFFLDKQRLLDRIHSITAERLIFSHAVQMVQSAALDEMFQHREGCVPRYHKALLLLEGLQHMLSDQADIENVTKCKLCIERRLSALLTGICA

First: COC(=O)Nc1ccccc1Oc1nc(Nc2cc(OC)c(OC)c(OC)c2)ncc1Br [Example 296, Methyl (2-((5-bromo-2-((3,4,5-trimethoxyphenyl)amino)pyrimidin-4-yl)oxy)phenyl)carbamate]
Second: CNC(=O)c1ccccc1Oc1nc(Nc2cc(OC)c(OC)c(OC)c2)ncc1Cl [Example 234a, 2-((5-chloro-2-((3,4,5-trimethoxyphenyl)amino)pyrimidin-4-yl)oxy)-N-methylbenzamide]
The IC50 of the first is lower: less than 200 nM for the first, greater than 2000 nM for the second. The first is the more potent here.

`FC(F)(F)c1cnc(Nc2ccc3nc[nH]c3c2)nc1Nc1cc(C2CCC2)[nH]n1` [Example 297, N2-(1H-benzo[d]imidazol-6-yl)-N4-(5-cyclobutyl-1H-pyrazol-3-yl)-5-(trifluoromethyl)pyrimidine-2,4-diamine] and `O=C1CCCc2cc(Nc3ncc(C(F)(F)F)c(NC4CC4)n3)ccc21` [Example 301, 6-((4-(cyclopropylamino)-5-(trifluoromethyl)pyrimidin-2-yl)amino)-3,4-dihydronaphthalen-1(2H)-one] cannot be ordered by IC50: less than 200 nM for the first, less than 200 nM for the second.

`COc1cc(Nc2ncc(Br)c(NC3CC3)n2)cc(OC)c1OC` [Example 186, 5-bromo-N4-cyclopropyl-N2-(3,4,5-trimethoxyphenyl)pyrimidine-2,4-diamine] and `COc1cc(Nc2ncc(Br)c(Nc3ccccc3CO)n2)cc(OC)c1OC` [Example 303, (2-((5-bromo-2-((3,4,5-trimethoxyphenyl)amino)pyrimidin-4-yl)amino)phenyl)methanol] cannot be ordered by IC50: less than 200 nM for the first, less than 200 nM for the second.

Work on `O=C1CCc2cc(Nc3ncc(C(F)(F)F)c(NC4COC4)n3)ccc2N1` [Example 193, 6-((4-(oxetan-3-ylamino)-5-(trifluoromethyl)pyrimidin-2-yl)amino)-3,4-dihydroquinolin-2(1H)-one] yielded an IC50 greater than 2000 nM.

target: ULK1; experiment: ULK1 inhibition assay (Table 1); assay type: biochemical; details: * = tested as a mixture of regioisomers

`O=C1CCc2cc(Nc3ncc(C(F)(F)F)c(NC4CN(c5nc(Nc6ccc7c(c6)CCC(=O)N7)ncc5C(F)(F)F)C4)n3)ccc2N1` [Example 198b, 6-((4-(3-((2-((2-oxo-1,2,3,4-tetrahydroquinolin-6-yl)amino)-5-(trifluoromethyl)pyrimidin-4-yl)amino)azetidin-1-yl)-5-(trifluoromethyl)pyrimidin-2-yl)amino)-3,4-dihydroquinolin-2(1H)-one] and `O=C1CCc2cc(Nc3nc(Oc4ccccc4)ncc3C(F)(F)F)ccc2N1` [Example 300b, 6-((2-phenoxy-5-(trifluoromethyl)pyrimidin-4-yl)amino)-3,4-dihydroquinolin-2(1H)-one] cannot be ordered by IC50: greater than 2000 nM for the first, greater than 2000 nM for the second.

`CNC(=O)c1cccc(OC)c1Oc1nc(Nc2cc(OC)c(OC)c(OC)c2)ncc1Br` [Example 252, 2-((5-bromo-2-((3,4,5-trimethoxyphenyl)amino)pyrimidin-4-yl)oxy)-3-methoxy-N-methylbenzamide] and `CN(C)c1nc(Nc2ccc3c(c2)CCC(=O)N3)ncc1C(F)(F)F` [Example 220b, 6-((4-(dimethylamino)-5-(trifluoromethyl)pyrimidin-2-yl)amino)-3,4-dihydroquinolin-2(1H)-one] cannot be ordered by IC50: less than 200 nM for the first, less than 200 nM for the second.

First: O=C1CCc2cc(Nc3ncc(C(F)(F)F)c(O)n3)ccc2N1 [Example 231b, 6-((4-hydroxy-5-(trifluoromethyl)pyrimidin-2-yl)amino)-3,4-dihydroquinolin-2(1H)-one]
Second: O=C1NC(=O)c2cc(Nc3ncc(C(F)(F)F)c(NC4CC4)n3)ccc21 [Example 314, 5-((4-(cyclopropylamino)-5-(trifluoromethyl)pyrimidin-2-yl)amino)isoindoline-1,3-dione]
The IC50 of the first is higher: greater than 2000 nM for the first, less than 200 nM for the second.

`Oc1ncc(C(F)(F)F)c(NC2CC2)n1` [Example 189, 4-(cyclopropylamino)-5-(trifluoromethyl)pyrimidin-2-ol] and `FC(F)(F)c1cnc(Nc2cccnc2)nc1NC1CC1` [Example 196, N4-cyclopropyl-N2-(pyridin-3-yl)-5-(trifluoromethyl) pyrimidine-2,4-diamine] cannot be ordered by IC50: greater than 2000 nM for the first, greater than 2000 nM for the second.
